The values that follow come from patent publication EP0153538A1, “Derivatives of melilotic acid, and medicaments containing them” (Laboratoire Marcel Richard Société anonyme dite, priority 1984, dated 1985).

Data set [1] concerns agrégation plaquettaire provoquée par l'ADP. As to the kind of experiment: Inhibition of ADP-induced platelet aggregation, rat. The data set is classed as in vivo. As to conditions: 100 mg/Kg. On the procedure: (§1) Ce produit inhibe l'agrégation plaquettaire provoquée par l'ADP (adénosine diphosphate) : • sur le sang humain, inhibition de 40 % à 100 mg/Kg, sur le rat et le lapin, inhibition de 60 Z à 100 mg/Kg.

A short description of data set [2]: Acute toxicity in male SWISS mice. The note with it: mouse, in vivo, souris mâle SWISS, read-out: toxicité (converted). Here is the method: Sa toxicité est de 1 500 mg/Kg par voie orale et de 750 mg/Kg par voie intrapéritonéale, déterminée sur la souris mâle-de la souche SWISS.
A further data set concerns rat anesthésié. As to the kind of experiment: Blood pressure in the anaesthetised rat after IV administration. As to conditions: rat anesthésié à l'éthylméthane, IV 100 mg/Kg. The data set is classed as in vivo. Here is the method: Sur le rat anesthésié à l'éthylméthane,on enregistre après administration IV. de 100 mg/Kg de produit selon l'invention une légère hypotension, soit une baisse de 15 %.

The test system of data set [3] is artériopathies périphériques, oedème de la cheville, varices. As to the kind of experiment: Therapeutic application (peripheral arteriopathies, ankle oedema, varices). The data set is classed as in vivo.
Another data set is described as follows: Solubility (qualitative). The data set is classed as physicochemical. On the procedure: Plus particulièrement, l'acide fluoro-5 acétyl mélilotique se présente sous la forme d'une poudre cristalline blanche, peu soluble dans l'eau, mais soluble dans l'alcool, l'acétone et dans les solvants organiques usuels. Son point de fusion est de 96-98°C.
12 g d'acide fluoro-5 acétoxy-2 cinnamique sont dissous dans 120cm3 acétate d'éthyle avec 1,5 g de palladium sur charbon à 10 % et hydro- gènés dans l'appareil de Parr sous 5 atmosphères d'hydrogène pendant 1 heure; on filtre et concentre sous vide pour obtenir un résidu cristallisé d'acide fluoro-5 acétylmélilotique pur peu soluble dans l'eau, soluble dans l'alcool, l'acétone et les solvants organiques usuels.

For data set [4], the system named is agrégation plaquettaire provoquée par l'ADP. Briefly: Inhibition of ADP-induced platelet aggregation, rabbit. The data set is classed as in vivo. As to conditions: lapin, 100 mg/Kg. On the procedure: as §1
For another data set, the system named is chien anesthésié. As to the kind of experiment: Cardiovascular and respiratory effects in the pentobarbital-anaesthetised dog after IV injection. The data set is classed as in vivo. The note with it: chien anesthésié au Pentobarbital, IV 50 mg/Kg.
For data set [5], the system named is souris. As to the kind of experiment: Hot plate test (analgesia) in mice. The data set is classed as in vivo. As to conditions: test à la plaque chauffante, 500 mg/Kg. Here is the method: (§2) En ce qui concerne l'activité analgésique, le produit donne dans le test à la phénylbenzoquinone et dans le test à la plaque chauffante chez la souris une protection de 88 % à 500 mg/Kg.
(In hot-plate and tail-flick tests a longer latency is read as antinociception.)

For data set [6], the system named is souris. As to the kind of experiment: Phenylbenzoquinone test (analgesia) in mice. The data set is classed as in vivo. As to conditions: test à la phénylbenzoquinone, 500 mg/Kg. Here is the method:
as §2

Data set [7] concerns agrégation plaquettaire provoquée par l'ADP. Briefly: Inhibition of ADP-induced platelet aggregation, human blood. The data set is classed as cell-based. As to conditions: sang humain, 100 mg/Kg. On the procedure:
as §1

Like-named read-outs stand apart in the source and are kept apart here.

In data set [1], `CC(=O)Oc1ccc(F)cc1CCC(=O)O` [acide fluoro-5 acétyl mélilotique] registered an inhibition de l'agrégation plaquettaire provoquée par l'ADP of 60%. Also, in [2] (ip, voie intrapéritonéale), the LD50 was 750 mg/kg. In data set [2] (po, voie orale), the LD50 is 1500 mg/kg. Besides, the “hypotension (baisse)” value with rat anesthésié was determined as 15%. The “application thérapeutique” value in data set [3] was “résultats favorables”. Besides, in the data set “Solubility (qualitative)” (alcool, acétone, solvants organiques usuels), the “solubilité dans l'alcool, l'acétone et les solvants organiques usuels” value is on record as “soluble”. In addition, in the data set “Solubility (qualitative)” (eau), the “solubilité dans l'eau” value is “peu soluble”. Besides, in data set [4], the “inhibition de l'agrégation plaquettaire provoquée par l'ADP” value is 60%. Also, in the data set with chien anesthésié, the “augmentation du débit” value is 65%, the battements entry is given as “renforcement”, the “diminution du rythme respiratoire” value turned out to be 25% and the fréquence cardiaque result is listed as “sans modification”. This compound also gave a hypotension in the data set on chien anesthésié of 7%. For the same compound, the protection in the data set with souris [5] was 88%. In the data set on souris [6], this compound had a protection of 88%. For the same compound, the “inhibition de l'agrégation plaquettaire provoquée par l'ADP” value in data set [7] was found to be 40%.
